Values joined by “and” are separate entries in the source; they are usually repeats but may differ in a detail not shown here. Identical values can stand only once.
Legend:
[1] = Intravenous pharmacokinetics in healthy BALB/c mice
Protocol: Pharmacokinetics and biodistribution Pharmacokinetics and biodistribution experiments were performed to study the concentration of ABD-Dox in blood and tissues over time following intravenous (i.v.) administration. For the pharmacokinetic study, ABD-Dox and Dox in PBS and AlDox in 10 mM sodium phosphate, 5% D-(+)-glucose, pH 5.8 were injected at 5 mg Dox Equiv. per kg of body weight (BW) into healthy BALB/c mice. 10 μL blood samples were collected at 40 s, 15 min and 30 min, and 2, 4, 8, 24, 48, 72 and 96 h post injection and were diluted into heparinized PBS (1 kUmL^−1), and centrifuged at 4,000 rcf, 10 min, 4° C. to collect the plasma. 10 μL of the plasma samples were then diluted in 490 μL of acidified isopropanol (0.075 M HCl, 10% water) and incubated overnight at 4° C. For the biodistribution study, ABD-Dox and Dox in PBS were injected at 5 mg Dox Equiv.kg^−1 BW into C26 tumor-bearing BALB/c mice. At 2 h, 24 h, and 72 h post-injection, mice were sacrificed and tumor, heart, lung, liver, spleen, kidney and muscle tissues were dissected, weighed, homogenized in acidified isopropanol using a Mini-Beadbeater (Biospec, Bartlesville, OK) with 2 mm diameter zirconia beads for 1-2 min, and were incubated overnight at 4° C. Following overnight incubation in acidified isopropanol, plasma and tissue samples were centrifuged at 16,000 rcf, 4° C. for 10 min and the supernatants were loaded onto black 96-well plates in duplicate and the Dox fluorescence was measured using on a Victor3 microplate reader (Perkin Elmer, Waltham, MA) with fluorescence excitation at 485 nm and emission at 590 nm. Tissues were also dissected from three untreated mice, processed in the same manner, serially diluted, and loaded on the plates to prepare a standard curve of fluorescence intensity versus the weight for each tissue from which the background tissue fluorescence was calculated and subtracted for each sample. Serial dilution of free Dox in acidified isopropanol was used as standard to quantify the Dox concentration as […] per liter of plasma (μM) and as the percent of the injected dose per gram (% ID g^−1) in the tumor and other tissues. Plasma concentrations of Dox Equiv. of ABD-Dox versus time were fit to a two-compartment model using SAAM II software (SAAM Institute, Seattle, WA) and the elimination half-life and the area-under-curve were computed. The tissue concentration of Dox. Equiv. of ABD-Dox and free Dox at each time point were compared in GraphPad Prism software (GraphPad, San Diego, CA) by Student's t-test with P<0.05 considered statistically significant.

[2] = system: C26 murine colon carcinoma cells; assay: In vitro cytotoxicity (MTS, 72 h) C26; format: cell-based; settings: 72 h incubation, Dox Equiv. concentration
Protocol: (§1) In vitro cytotoxicity C26 murine colon carcinoma cells and three different pancreatic cancer cell lines, BxPC-3, AsPC-1, and MIA PaCa-2, were used to study the in vitro cytotoxicity of ABD-DOX and Dox. Cells were cultured and grown as monolayers at 37° C. with C02 in a humidified incubator and were passaged at ˜80% confluency using 0.05% trypsin-EDTA (Invitrogen, Carlsbad, CA). C26, BxPC-3, AsPC-1, and MIA PaCa-2 cells were seeded in 96-well plates (5,000 cells/well) and incubated overnight. Three-fold serial dilutions of drug were then added to the wells in triplicate and also to control wells (media with no cells) to correct for the background Dox absorbance. After 72 h treatment, 20 μL MTS reagent was added to each well and was incubated for 3 h at 37° C., and the absorbance at 490 nm was measured using a Victor3 plate reader (Perkin Elmer, Boston, MA). Cell viability (%) was defined as the percentage of the absorbance of the drug-treated cells relative to buffer-treated cells and IC50 values were determined using logistic non-linear regression analysis with GraphPad Prism software. The IC50 was defined as the Dox Equiv. concentration of formulations resulting in 50% growth inhibition compared with a negative control, buffer-treated cells.

MIA PaCa-2 cells = assay: In vitro cytotoxicity (MTS, 72 h) MIA PaCa-2; format: cell-based, human; settings: 72 h incubation, Dox Equiv. concentration
Protocol: as §1

[3] = system: AsPC-1 pancreatic cancer cells; assay: In vitro cytotoxicity (MTS, 72 h) AsPC-1; format: cell-based, human; settings: 72 h incubation, Dox Equiv. concentration
Protocol: as §1

[4] = system: BxPC-3 pancreatic cancer cells; assay: In vitro cytotoxicity (MTS, 72 h) BxPC-3; format: cell-based, human; settings: 72 h incubation, Dox Equiv. concentration
Protocol: as §1

[5] = Dose-escalation study, maximum tolerated dose; format: in vivo, BALB/c mice; settings: i.v., healthy BALB/c mice, two weeks; no mortality or body weight loss greater than 15%
Protocol: With these encouraging biodistribution results in hand, tumor regression in vivo by ABD-Dox was investigated. The maximum tolerated dose (MTD) of ABD-Dox was established in healthy mice. A range of doses of ABD-Dox were injected into healthy BALB/c mice, and body weight loss and mortality of the mice were monitored over a two-week period to assess systemic toxicity. […] Using these criteria, the MTD was determined to be 20 mg Dox Equiv.kg^−1 for ABD-Dox (FIG. 7) and 10 mgkg^−1 BW MTD of free Dox (FIG. 8).

[6] = Tissue biodistribution in C26 tumor-bearing BALB/c mice; format: in vivo
From the text: The tissue concentration of Dox.

[7] = system: C26 colon carcinoma tumors; assay: In vivo tumor regression, syngeneic C26 model; set-up: species or system BALB/c mice; settings: 20 mg Dox Equiv.kg^−1 BW
Protocol: (§2) In vivo tumor regression For in vivo tumor implantation, C26 cells at 5×10^5 cells in 30 μL Minimum Essential Medium (MEM) (Invitrogen, Carlsbad, CA) and MIA PaCa-2 cells at 2×10^6 cells in 50 μL 10:90 v/v MEM: Matrigel matrix (Corning Inc, Corning, New York) were inoculated in the right flank of normal and athymic nude BALB/c mice, respectively. Tumor cells were allowed to grow until the tumor volume, calculated as π/6×length×width^2, reached 75-100 mm^3 for C26 tumors and 100-125 mm^3 for MIA PaCa-2 tumors. Tumor bearing mice were then treated with ABD-Dox at 10 and 20 mg Dox Equiv.kg^−1 BW, AlDox at 20 mg Dox Equiv.kg^−1 BW, and free Dox at 10 mgkg^−1 BW. Tumor volumes and body weights were monitored for 100 days after treatment and mice displaying excessive tumor volume (>[…]), body weight loss (>15%), or ill health were euthanized. Tumor growth and survival data were analyzed by GraphPad Prism software. Survival curves were generated with the Kaplan-Meier method and compared with the log-rank (Mantel-Cox) test. Tumor growth data were compared with a paired one-way ANOVA followed by Tukey-Kramer (Tukey's) post-hoc test. P<0.05 was considered as statistically significant.
(§3) For in vivo tumor regression studies, a single dose of ABD-Dox was injected via tail vein at 10 mg Dox Equiv.kg^−1 BW (MTD of free Dox) and 20 mg Dox Equiv.kg^−1 BW (MTD of ABD-Dox) in separate cohorts of BALB/c mice with s.c. C26 tumors or nude mice with s.c. MIA Paca-2 tumors. Free Dox was injected at its MTD of 10 mgkg-1 BW, and AlDox was injected at 20 mg Dox Equiv.kg^−1 BW, a dose that was reported to be safe in previous studies. All animals were injected when the tumors were 75-100 mm; in size for C26 tumors and 100-125 mm^3 for MIA PaCa-2 tumors.

[8] = system: MIA PaCa-2 pancreatic tumor xenografts; assay: In vivo tumor regression, MIA PaCa-2 xenograft model; set-up: species or system nude BALB/c mice
Protocol: as §2, §3

Aqueous solubility = format: physicochemical
Protocol: To remove the ELP160 tag, the KEKE-ELP160-srt-ABD-Dox conjugate was buffer exchanged into sortase reaction buffer, and was reacted with (His)6-sortase A-ELP40 in the presence of a 50 fold molar excess of triglycine (FIG. 2A). The efficiency of the sortase reaction, defined as the percent conversion of ELP-ABD-Dox substrate to ABD-Dox, was determined by size exclusion HPLC and was calculated to be ≥85% (FIG. 3A). The ABD-Dox product was then separated from (His)6-sortase A-ELP40, the cleaved KEKE-ELP160 tag, and unreacted KEKE-ELP160-srt-ABD-Dox in the sortase reaction solution by preparative size exclusion chromatography (SEC). The number of Dox molecules conjugated per ABD (Dox/ABD molar ratio) was measured before the sortase reaction by dissolving the lyophilized KEKE-ELP160-srt-ABD-Dox conjugate in PBS and calculating the moles of KEKE-ELP160-srt-ABD-Dox and Dox gravimetrically and spectrophotometrically at 488 nm, respectively. 3-4 Dox molecules were attached to each KEKE-ELP160-srt-ABD-(CGG)8. However, following removing the ELP160 tag, the resulting ABD-Dox conjugate was too hydrophobic and insoluble in pH 7.4 PBS because of the high number of conjugated Dox molecules. […] Formulation of AlDox in acidic pH, however, is undesirable as it can trigger the premature, in vitro degradation of the hydrazone bond between Dox and EMCH, converting AlDox back to free Dox.

SMILES | concentration in blood relative to initial concentration ([1]; 15 min after i.v. injection) | in vivo elimination half-life ([1]; i.v., 5 mg Dox Equiv. per kg BW) | IC50 [2] | IC50 (MIA PaCa-2 cells) | IC50 [3] | IC50 [4] | maximum tolerated dose (MTD) [5] | concentration of Dox equivalent in tumor ([6]; 2 h after administration) | minimum tumor accumulation ([6]; over 72 h) | eradication of C26 tumors [7] | mice that did not survive over the 100-day course of study [7] | recurrence of the primary tumor [7] | mice showing tumor disappearance ([8]; by day 15 after treatment, 20 mg Dox Equiv.kg^−1 BW) | tumor recurrence in tumor-eradicated mice ([8]; by day 50, 20 mg Dox Equiv.kg^−1 BW) | concentration at which acidic pH is required for solubility in aqueous solutions (Aqueous solubility) | solubility (Aqueous solubility; physiological pH)
COc1cccc2c1C(=O)c1c(O)c3c(c(O)c1C2=O)C[C@@](O)(C(=O)CO)C[C@@H]3O[C@H]1C[C@H](N)[C@H](O)[C@H](C)O1 [free Dox, Doxorubicin, reference compound] | less than 2% | on the order of minutes | 500 nM and 510 nM | 40 nM | 2500 nM | 400 nM | 10 mgkg^−1 BW | 1.6 % ID.g^−1 | 0.07 % ID.g^−1 | – | – | – | – | – | – | –
COc1cccc2c1C(=O)c1c(O)c3c(c(O)c1C2=O)C[C@@](O)(/C(CO)=N/NC(=O)CCCCCN1C(=O)C=CC1=O)C[C@@H]3O[C@H]1C[C@H](N)[C@H](O)[C@H](C)O1 [AlDox, Aldoxorubicin, reference compound] | – | – | – | – | – | – | – | – | – | incomplete eradication | 25% | without recurrence of the primary tumor in any mice | 50% | all | ≥ 0.5 mg Dox Equiv.mL^−1 | poor solubility
